Measurements from article PMC8544245 (Journal of medicinal chemistry, 2020).
“And” between values parts separate entries of the source, which are not always exact repeats. Equal entries are not always repeated. Where two headings read alike, the source gives them in different places. Non-standard residues stand in square brackets, D forms with d. Residues, ends and D or L forms follow the SMILES beside them. *: point of attachment. d(hPhe) = N[C@H](CCc1ccccc1)C(=O)O; Bn = c1ccc(C*)cc1; NHOH = ON*

Tests used:
MMP-13 [1] = biological target: T1, MMP-13 (Homo sapiens, UniProt P45452); conditions: even at 1 μM; cited from earlier work
hMMP-12 [2] = biological target: T2, hMMP-12 (Homo sapiens, UniProt P39900); conditions: read-out: IC50 for hMMP-12 inhibition; dose response (Figure 2B); cited from earlier work
MMP-9 [3] = biological target: T3, MMP-9 (Homo sapiens, UniProt P14780); conditions: even at 1 μM; cited from earlier work
MMP-3 [4] = biological target: T4, MMP-3 (Homo sapiens, UniProt P08254); conditions: at 55 nM; cited from earlier work
MMP-1 [5] = biological target: T5, MMP-1 (Homo sapiens, UniProt P03956); conditions: even at 1 μM; cited from earlier work
T5 sequence (P03956 100-269 limits assumed): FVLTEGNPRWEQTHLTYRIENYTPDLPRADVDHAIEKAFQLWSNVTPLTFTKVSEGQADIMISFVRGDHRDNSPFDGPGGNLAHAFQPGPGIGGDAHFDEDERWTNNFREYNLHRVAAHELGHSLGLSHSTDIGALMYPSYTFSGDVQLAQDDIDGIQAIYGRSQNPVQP

MMP-14 [6] = biological target: T6, MMP-14 (Homo sapiens, UniProt P50281); conditions: even at 1 μM; cited from earlier work
MMP-3 [7] = biological target: T4, MMP-3; test: SensoLyte 520 Fluorimetric Assay Kit selectivity assay, MMP-3; assay type: biochemical; conditions: agents tested at 25 nM or at 4 nM (Figure 5)
MMP-1 [8] = biological target: T5, MMP-1; test: SensoLyte 520 Fluorimetric Assay Kit selectivity assay, MMP-1; assay type: biochemical; conditions: agents tested at 25 nM or at 4 nM (Figure 5)
[9] = Solubility in the dosing formulation; assay type: physicochemical; conditions: 10% DMSO, 40% PEG400, and 10% (2-hydroxypropyl)-Beta-cyclodextrin in PBS
hMMP-12 [10] = biological target: T2, hMMP-12; test: SensoLyte 520 MMP-12 Fluorimetric Assay Kit enzymatic inhibition assay; assay type: biochemical
MMP-14 [11] = biological target: T6, MMP-14; test: SensoLyte 520 Fluorimetric Assay Kit selectivity assay, MMP-14; assay type: biochemical; conditions: agents tested at 25 nM or at 4 nM (Figure 5)
[12] = assay type: in vivo; conditions: 30 mg/kg i.p., Balb-C mice; converted from ng/ml
MMP-13 [13] = biological target: T1, MMP-13; test: SensoLyte 520 Fluorimetric Assay Kit selectivity assay, MMP-13; assay type: biochemical; conditions: agents tested at 25 nM or at 4 nM (Figure 5)
[14] = tested on: elastase-induced emphysema (lung tissue destruction); test: Murine model of elastase-induced emphysema, mean linear intercept; assay type: in vivo, C57BL/6 mice; conditions: PPE intranasal, i.p. treatment once daily for 7 days from day 2, read at day 21
MMP-9 [15] = biological target: T3, MMP-9; test: SensoLyte 520 Fluorimetric Assay Kit selectivity assay, MMP-9; assay type: biochemical; conditions: agents tested at 25 nM or at 4 nM (Figure 5)

T2 sequence (P39900 106-263): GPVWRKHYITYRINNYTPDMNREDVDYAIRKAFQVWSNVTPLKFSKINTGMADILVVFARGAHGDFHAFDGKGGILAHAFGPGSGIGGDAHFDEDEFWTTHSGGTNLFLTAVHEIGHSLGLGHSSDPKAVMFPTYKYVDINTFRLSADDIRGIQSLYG
T4 sequence (P08254 100-272 limits assumed): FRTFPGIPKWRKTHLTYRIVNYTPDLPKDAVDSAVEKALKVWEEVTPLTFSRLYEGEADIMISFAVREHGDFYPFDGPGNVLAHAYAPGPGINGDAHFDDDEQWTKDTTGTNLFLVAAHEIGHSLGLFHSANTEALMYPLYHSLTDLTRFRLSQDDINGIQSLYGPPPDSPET
T3 sequence (P14780 107-444 limits assumed): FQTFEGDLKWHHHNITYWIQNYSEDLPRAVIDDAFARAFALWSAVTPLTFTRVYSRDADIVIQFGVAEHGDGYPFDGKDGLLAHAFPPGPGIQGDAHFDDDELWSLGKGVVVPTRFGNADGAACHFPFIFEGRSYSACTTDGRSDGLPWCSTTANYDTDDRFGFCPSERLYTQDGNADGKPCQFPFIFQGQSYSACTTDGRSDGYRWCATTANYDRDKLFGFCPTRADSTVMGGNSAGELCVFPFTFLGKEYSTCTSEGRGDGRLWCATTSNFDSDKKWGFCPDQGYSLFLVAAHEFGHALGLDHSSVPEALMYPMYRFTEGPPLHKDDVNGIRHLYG

inhibition of MMP-3 (MMP-3 [7]) | inhibition of MMP-1 (MMP-1 [8]) | mode of hMMP-12 inhibition (hMMP-12 [10]) | inhibition of MMP-14 (MMP-14 [11]) | inhibition of MMP-13 (MMP-13 [13]) | inhibition of MMP-9 (MMP-9 [15]) | SMILES | emphysema-like pathology (MLI) compared to PPE + vehicle-treated mice [14] | further results
 |  |  |  |  |  | CC(=O)N[C@@H](COCc1ccccc1)C(=O)N[C@H](CCc1ccccc1)C(=O)N[C@H](Cc1ccccc1)C(=O)NO [compound 1] (Ac-Ser(Bn)-[d(hPhe)]-[dF]-{NHOH}) |  | inhibition of MMP-13 (MMP-13 [1]): did not significantly inhibit; IC50 (hMMP-12 [2]): ~30 nM and 29.7 nM; inhibition of MMP-9 (MMP-9 [3]): did not significantly inhibit; inhibition of MMP-3 (MMP-3 [4]): ~ 19%; inhibition of MMP-1 (MMP-1 [5]): did not significantly inhibit; inhibition of MMP-14 (MMP-14 [6]): did not significantly inhibit
appreciable inhibition |  |  |  |  |  | CNC(=O)[C@H](Cc1c[nH]c2ccccc12)NC(=O)[C@@H](CC(=O)NO)CC(C)C [GM6001, reference compound] |  | 
appreciable inhibition | did not display significant inhibition | competitive inhibitors | did not display significant inhibition | did not display significant inhibition | did not display significant inhibition | COc1ccc(CC[C@@H](NC(=O)[C@H](CCCc2ccccc2)NC(=O)CN2CCOCC2)C(=O)N[C@H](Cc2ccc(C)cc2)C(=O)NO)cc1 [compound 25] | significant decrease | solubility in formulation [9]: soluble; peak plasma drug concentration [12]: ~ 580 nM
appreciable inhibition | did not display significant inhibition | competitive inhibitors | did not display significant inhibition | did not display significant inhibition | did not display significant inhibition | COc1ccc(CCC[C@H](NC(=O)CN2CCOCC2)C(=O)N[C@H](CCc2ccc(OC)cc2)C(=O)N[C@H](Cc2ccc(C)cc2)C(=O)NO)cc1 [compound 26] | significant decrease | 
 |  |  |  |  |  | COC(=O)Nc1ccc2oc3cc(S(=O)(=O)N[C@H](C(=O)O)C(C)C)ccc3c2c1 [MMP408, (S)-2-(8-(methoxycarbonylamino)dibenzo[b,d]furan-3-sulfonamido)-3-methylbutanoic acid, reference compound] | significant decrease | 
